From paper PMC7617869, “Molecular glues that inhibit deubiquitylase activity and inflammatory signaling” (Nature Structural & Molecular Biology, 2025)
Values joined by “and” are separate entries in the source; they are usually repeats but may differ in a detail not shown here. Equal values may be shown once.

Tests used:
Assay type in all cases: biochemical
[1] = biological target: T1, BRISC (Homo sapiens, UniProt P46736+Q15018+Q9NXR7); test: Compound library screening and hit validation (IQF diubiquitin, 1 nM BRISC); settings: for BRISC, normalised activity (Ext. 1a): two replicate columns
T1 construct: made in house; host or cells: Spodoptera frugiperda (Sf9) insect cells, MultiBac
Procedure: (§1) Assays were performed in 384-well black flat-bottom low-flange plates (Corning, 35373) in buffer containing 50 mM HEPES–NaOH pH 7.0, 100 mM NaCl, 1 mg ml^−1 BSA, 1 mM DTT and 0.03% v/v Brij-35. Then, 10 μl of twofold concentrated enzyme stock was dispensed, followed by transfer of 200 nl of compounds (1 mM stock) using a 384-pin tool and a 15-min incubation at room temperature. Then, 10 μl of twofold concentrated substrate stock was added and the reaction was monitored by measuring fluorescence intensity (excitation, 540 nm; emission, 580 nm) after 20-min incubation at room temperature and ~50% of substrate was consumed. Orthogonal assays for verification of H20 and P12 hit compounds using USP2 (100 nM) and trypsin (125 nM) were performed in identical conditions.

[2] = biological target: T2, USP2 (Homo sapiens, UniProt O75604); test: USP2 IQF diubiquitin selectivity assay; settings: for USP2, normalised activity (Ext. 1a): two replicate columns
T2 construct: His (N, cleaved yes); host or cells: Escherichia coli BL21(DE3)
T2 sequence (O75604 258-605 limits assumed): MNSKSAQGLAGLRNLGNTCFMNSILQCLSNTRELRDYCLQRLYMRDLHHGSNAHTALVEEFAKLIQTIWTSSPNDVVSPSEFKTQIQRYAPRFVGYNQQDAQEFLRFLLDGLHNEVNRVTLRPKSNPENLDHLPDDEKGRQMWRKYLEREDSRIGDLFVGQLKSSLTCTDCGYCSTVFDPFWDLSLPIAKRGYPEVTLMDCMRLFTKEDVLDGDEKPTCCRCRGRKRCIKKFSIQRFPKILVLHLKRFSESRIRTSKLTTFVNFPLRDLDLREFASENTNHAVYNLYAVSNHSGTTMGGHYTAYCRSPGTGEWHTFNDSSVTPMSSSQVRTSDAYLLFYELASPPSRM
Procedure: as §1, with “BRISC DUB activity was measured at room temperature using 1 nM BRISC and 500 nM IQF diubiquitin K63 substrate (LifeSensors, DU6303) in the presence of DMSO and compounds at 10 μM (final concentrations). Assays” for “Assays”
(§2) IQF assays were performed in DUB reaction buffer containing 50 mM HEPES–NaOH pH 7.0, 100 mM NaCl, 0.1 mg ml^−1 BSA, 1 mM DTT and 0.03% v/v Brij-35. […] The final concentration of BRISC WT, all BRISC mutants, HsBRISCΔLoop, MmBRISC and DrBRISCΔNΔC was 1 nM. Other enzymes were tested at the following concentrations: 5 nM ARISC (FL), 10 nM CfBRISCΔNΔC, 250 nM AMSH* (ref. [43]), 500 nM USP2 and 1 μM trypsin (Sigma, 9002-07-7). For Michaelis–Menten experiments, 1 nM BRISC with 0–1 μM IQF K63-linked diubiquitin substrate was used. Michaelis–Menten analyses and Lineweaver–Burk plots were calculated using GraphPad Prism (version 9.0).
(§3) To assess enzymatic activity, BRISC complexes were diluted to concentrations between 1 nM and 50 nM. […] Then, 20-μl enzyme reactions were carried out in 384-well black flat-bottom low-flange plates (Corning, 35373). DUB activity was measured using IQF K63-linked diubiquitin (LifeSensors, DU6303) at 50 nM. Cleaved diubiquitin was monitored by measuring fluorescence intensity (excitation, 544 nm; emission, 575 nm; dichroic mirror, 560 nm). Fluorescence intensity was measured every minute for 30 min at 30 °C. Fluorescence intensity units were plotted against time to generate a linear reaction progress curve, where the initial velocity (V0) corresponds to the gradient of the curve (typically achieved within 15 min). IC50 values were calculated using the GraphPad Prism (version 9.0) built-in dose–response equation for inhibitor concentration versus response (variable slope).

[3] = test system: trypsin; test: Trypsin IQF diubiquitin selectivity assay; settings: for TRYPSIN, normalised activity (Ext. 1a): two replicate columns
Procedure: as §1, with “BRISC DUB activity was measured at room temperature using 1 nM BRISC and 500 nM IQF diubiquitin K63 substrate (LifeSensors, DU6303) in the presence of DMSO and compounds at 10 μM (final concentrations). Assays” for “Assays”
as §2, §3

[4] = biological target: T1, BRISC; test: BRISC DUB activity assay (IQF K63-linked diubiquitin); settings: for IC50: IQF K63-linked diubiquitin substrate, read-out: IC50, inhibition of BRISC DUB activity; for Mean V0: Fig. 1d
Procedure: as §2, §3

[5] = log [compound (μM)] 0.1938, listed as P12
[6] = log [compound (μM)] 0.4949, listed as P12
[7] = log [compound (μM)] 0.7959, listed as P12
[8] = log [compound (μM)] 1.0969, listed as P12
[9] = log [compound (μM)] 1.3979, listed as P12
[10] = log [compound (μM)] 1.6990, listed as P12
[11] = log [compound (μM)] 2.0000, listed as P12
[12] = log [compound (μM)] -0.1072, listed as P12
[13] = log [compound (μM)] -0.4082, listed as P12
[14] = log [compound (μM)] -0.7093, listed as P12
[15] = log [compound (μM)] -1.0103, listed as P12
[16] = log [compound (μM)] -2.0103, normalisation point

For O=C(NC1CCNCC1)c1n[nH]cc1NC(=O)c1c(Cl)cccc1Cl [AT7519 (Synkinase)], the “normalised V0, Mean” value ([1]; log[compound (μM)] 0.0000) was 0.9360, the “normalised V0, Mean” value ([1]; log[compound (μM)] 1.0000) was 0.9184 and the “normalised V0, Mean” value ([1]; log[compound (μM)] 1.3010) was 0.8902. The “normalised V0, Mean” value ([1]; log[compound (μM)] 1.6990) was 0.8666, the “normalised V0, Mean” value ([1]; log[compound (μM)] 2.0000) was 0.8425 and the “normalised V0, Mean” value ([1]; log[compound (μM)] -3.0000, normalisation point) was 1.

For Nc1ccc(C(=O)Nc2cccc(-c3nc(N4CCOCC4)c4oc5ncccc5c4n3)c2)cn1 [YM201636, reference compound], the “inhibition of BRISC, hit validation dose response” value ([1]; BRISC 1 nM) was “inhibited”, the “BRISC, normalised activity (Ext. 1a)” value [1, 5] was 0.9184 and 0.9164 and the “BRISC, normalised activity (Ext. 1a)” value [1, 6] was 0.8260 and 0.8472. The “BRISC, normalised activity (Ext. 1a)” value [1, 7] was 0.7220 and 0.6802, the “BRISC, normalised activity (Ext. 1a)” value [1, 8] was 0.5475 and 0.6138 and the “BRISC, normalised activity (Ext. 1a)” value [1, 9] was 0.4196 and 0.4274. The “BRISC, normalised activity (Ext. 1a)” value [1, 10] was 0.2277 and 0.3017, the “BRISC, normalised activity (Ext. 1a)” value [1, 11] was 0.1348 and 0.1662 and the “BRISC, normalised activity (Ext. 1a)” value [1, 12] was 0.9841 and 0.9959. For the same compound, the “BRISC, normalised activity (Ext. 1a)” value [1, 13] was 1.0145 and 0.9950, the “BRISC, normalised activity (Ext. 1a)” value [1, 14] was 0.9264 and 1.0022 and the “BRISC, normalised activity (Ext. 1a)” value [1, 15] was 0.9725 and 0.9468. The “BRISC, normalised activity (Ext. 1a)” value [1, 16] was 1.0000, the “inhibition of USP2” value ([2]; IQF K63 diubiquitin substrate) was “inhibited” and the “USP2, normalised activity (Ext. 1a)” value [2, 5] was 0.9446 and 0.9072. The “USP2, normalised activity (Ext. 1a)” value [2, 6] was 0.7366 and 0.8095, the “USP2, normalised activity (Ext. 1a)” value [2, 7] was 0.5989 and 0.5952 and the “USP2, normalised activity (Ext. 1a)” value [2, 8] was 0.4578 and 0.4777. For the same compound, the “USP2, normalised activity (Ext. 1a)” value [2, 9] was 0.2821 and 0.3159, the “USP2, normalised activity (Ext. 1a)” value [2, 10] was 0.1157 and 0.1340 and the “USP2, normalised activity (Ext. 1a)” value [2, 11] was 0.0697 and 0.0548. The “USP2, normalised activity (Ext. 1a)” value [2, 12] was 0.9974 and 0.9861, the “USP2, normalised activity (Ext. 1a)” value [2, 13] was 1.0145 and 0.9995 and the “USP2, normalised activity (Ext. 1a)” value [2, 14] was 1.0193 and 1.0736. The “USP2, normalised activity (Ext. 1a)” value [2, 15] was 0.9978 and 1.0361, the “USP2, normalised activity (Ext. 1a)” value [2, 16] was 1.0000 and the inhibition of trypsin ([3]; IQF K63 diubiquitin substrate) was “inhibited”. For the same compound, the “TRYPSIN, normalised activity (Ext. 1a)” value [3, 5] was 0.9684 and 0.9837, the “TRYPSIN, normalised activity (Ext. 1a)” value [3, 6] was 0.8434 and 0.8923 and the “TRYPSIN, normalised activity (Ext. 1a)” value [3, 7] was 0.6993 and 0.7044. For the same compound, the “TRYPSIN, normalised activity (Ext. 1a)” value [3, 8] was 0.6731 and 0.7139, the “TRYPSIN, normalised activity (Ext. 1a)” value [3, 9] was 0.4990 and 0.5130 and the “TRYPSIN, normalised activity (Ext. 1a)” value [3, 10] was 0.3403 and 0.4535. The “TRYPSIN, normalised activity (Ext. 1a)” value [3, 11] was 0.3318 and 0.3209, the “TRYPSIN, normalised activity (Ext. 1a)” value [3, 12] was 1.0347 and 0.9747 and the “TRYPSIN, normalised activity (Ext. 1a)” value [3, 13] was 1.0259 and 0.9266. The “TRYPSIN, normalised activity (Ext. 1a)” value [3, 14] was 0.9472 and 0.9474, the “TRYPSIN, normalised activity (Ext. 1a)” value [3, 15] was 0.9224 and 0.9184 and the “TRYPSIN, normalised activity (Ext. 1a)” value [3, 16] was 1.0000.

O=C(NC1CCNCC1)c1n[nH]cc1NC(=O)c1c(Cl)cccc1Cl [AT7519 (Sellekchem)] was tested, and the “normalised V0, Mean” value ([1]; log[compound (μM)] 0.0000) was 0.9555, the “normalised V0, Mean” value ([1]; log[compound (μM)] 0.6990) was 1.0013 and the “normalised V0, Mean” value ([1]; log[compound (μM)] 1.0000) was 1.0109. For the same compound, the “normalised V0, Mean” value ([1]; log[compound (μM)] 1.4771) was 0.9903, the “normalised V0, Mean” value ([1]; log[compound (μM)] 1.6990) was 1.0462 and the “normalised V0, Mean” value ([1]; log[compound (μM)] 2.0000) was 1.0357. The “normalised V0, Mean” value ([1]; log[compound (μM)] 2.3010) was 0.9736, the “normalised V0, Mean” value ([1]; log[compound (μM)] -1.0000) was 1.0118 and the “normalised V0, Mean” value ([1]; log[compound (μM)] -1.3010) was 0.9395. For the same compound, the “normalised V0, Mean” value ([1]; log[compound (μM)] -4.0000) was 1.0025.

With C[N+]1(C)CCC(NC(=O)c2nn(C(=O)c3c(Cl)cccc3Cl)cc2NC(=O)c2c(Cl)cccc2Cl)CC1 [FX-25-2] the IC50 [4] was 21 µM, the “normalised V0, Mean” value ([4]; inhibitor 0.0268861 μM) was 1 and the “normalised V0, Mean” value ([4]; inhibitor 0.268861 μM) was 1.082. For the same compound, the “normalised V0, Mean” value ([4]; inhibitor 0.806584 μM) was 1.109, the “normalised V0, Mean” value ([4]; inhibitor 2.41975 μM) was 1.0044 and the “normalised V0, Mean” value ([4]; inhibitor 7.25926 μM) was 1.002. For the same compound, the “normalised V0, Mean” value ([4]; inhibitor 21.7778 μM) was 0.6484, the “normalised V0, Mean” value ([4]; inhibitor 65.3333 μM) was 0.3437 and the “normalised V0, Mean” value ([4]; inhibitor 196 μM) was 0.2841.

O=C(NC1CCNCC1)c1nn(C(=O)c2c(Cl)cccc2Cl)cc1NC(=O)c1c(Cl)cccc1Cl [JMS175-2] was tested, and the “Mean V0” value ([4]; log[compound (μM)] 0.1938) was 0.5385, the “Mean V0” value ([4]; log[compound (μM)] 0.4949) was 0.3840 and the “Mean V0” value ([4]; log[compound (μM)] 0.7959) was 0.2986. For the same compound, the “Mean V0” value ([4]; log[compound (μM)] 1.0969) was 0.2014, the “Mean V0” value ([4]; log[compound (μM)] 1.3979) was 0.1684 and the “Mean V0” value ([4]; log[compound (μM)] 1.6990) was 0.1492. The “Mean V0” value ([4]; log[compound (μM)] 2.0000) was 0.0500, the “Mean V0” value ([4]; log[compound (μM)] 2.3010) was 0.0048 and the “Mean V0” value ([4]; log[compound (μM)] -0.1072) was 0.7414. The “Mean V0” value ([4]; log[compound (μM)] -1.1072) was 0.9992 and the “Mean V0” value ([4]; log[compound (μM)] -2.0000) was 1.0000.

With O=C(NC1CCNCC1)c1n[nH]cc1NC(=O)c1c(Cl)cccc1Cl [AT7519, N-(4-piperidinyl)-4-(2,6-dichlorobenzoylamino)-1H-pyrazole-3-carboxamide, reference compound] the “inhibition of BRISC DUB activity (in words)” value ([4]; IQF diubiquitin assay) was “neither inhibited”.

CN1CCC(NC(=O)c2nn(C(=O)c3c(Cl)cccc3Cl)cc2NC(=O)c2c(Cl)cccc2Cl)CC1 [FX-25-1] was tested, and the IC50 [4] was 5.2 µM, the “normalised V0, Mean” value ([4]; inhibitor 0.0268861 μM) was 1 and the “normalised V0, Mean” value ([4]; inhibitor 0.268861 μM) was 0.8889. The “normalised V0, Mean” value ([4]; inhibitor 0.806584 μM) was 0.8346, the “normalised V0, Mean” value ([4]; inhibitor 2.41975 μM) was 0.6971 and the “normalised V0, Mean” value ([4]; inhibitor 7.25926 μM) was 0.4496. The “normalised V0, Mean” value ([4]; inhibitor 21.7778 μM) was 0.3208, the “normalised V0, Mean” value ([4]; inhibitor 65.3333 μM) was 0.1744 and the “normalised V0, Mean” value ([4]; inhibitor 196 μM) was 0.1298.
